Values quoted from earlier work in paper PMC6269737, “Effect of Honokiol on Cytochrome P450 and UDP-Glucuronosyltransferase Enzyme Activities in Human Liver Microsomes” (Molecules, 2013).

Key:
CYP2C8 = molecular target: T1, CYP2C8 (Homo sapiens, UniProt P10632); settings: cited from earlier work
T1 sequence (P10632 1-490): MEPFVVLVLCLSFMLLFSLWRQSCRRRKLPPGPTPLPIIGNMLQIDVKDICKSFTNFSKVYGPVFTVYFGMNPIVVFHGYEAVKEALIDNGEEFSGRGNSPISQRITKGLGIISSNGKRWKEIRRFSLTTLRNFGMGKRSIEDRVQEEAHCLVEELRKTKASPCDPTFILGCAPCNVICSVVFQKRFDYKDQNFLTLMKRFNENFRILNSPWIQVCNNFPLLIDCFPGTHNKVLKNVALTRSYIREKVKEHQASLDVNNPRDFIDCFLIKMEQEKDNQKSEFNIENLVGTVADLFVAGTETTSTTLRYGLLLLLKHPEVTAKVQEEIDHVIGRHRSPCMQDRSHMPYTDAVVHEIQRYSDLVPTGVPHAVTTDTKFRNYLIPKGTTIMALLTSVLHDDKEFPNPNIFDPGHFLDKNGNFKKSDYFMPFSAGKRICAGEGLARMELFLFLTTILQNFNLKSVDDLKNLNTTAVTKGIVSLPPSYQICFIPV

UGT1A9 = molecular target: T2, UGT1A9 (Homo sapiens, UniProt O60656); parameters: method as in PMID 21245288; settings: selective UGT1A9 inhibitor; cited from earlier work
T2 sequence (O60656 26-530): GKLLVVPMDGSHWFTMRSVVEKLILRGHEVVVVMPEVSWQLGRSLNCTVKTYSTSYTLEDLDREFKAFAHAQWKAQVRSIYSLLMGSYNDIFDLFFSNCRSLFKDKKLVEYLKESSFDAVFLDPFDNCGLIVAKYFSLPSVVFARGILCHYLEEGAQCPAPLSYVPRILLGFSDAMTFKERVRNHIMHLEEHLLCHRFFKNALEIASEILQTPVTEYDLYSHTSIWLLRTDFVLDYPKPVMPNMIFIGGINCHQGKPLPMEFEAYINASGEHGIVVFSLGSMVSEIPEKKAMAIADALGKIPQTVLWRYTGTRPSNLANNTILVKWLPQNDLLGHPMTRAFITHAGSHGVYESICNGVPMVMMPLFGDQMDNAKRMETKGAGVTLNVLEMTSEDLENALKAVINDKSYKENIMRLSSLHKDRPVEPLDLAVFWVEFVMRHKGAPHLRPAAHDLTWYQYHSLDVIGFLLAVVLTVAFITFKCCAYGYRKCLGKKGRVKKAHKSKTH

CYP1A2 = molecular target: T3, CYP1A2 (Homo sapiens, UniProt P05177); parameters: method as in PMID 23446989; settings: inhibitory effect towards CYP1A2; cited from earlier work
T3 sequence (P05177 1-516): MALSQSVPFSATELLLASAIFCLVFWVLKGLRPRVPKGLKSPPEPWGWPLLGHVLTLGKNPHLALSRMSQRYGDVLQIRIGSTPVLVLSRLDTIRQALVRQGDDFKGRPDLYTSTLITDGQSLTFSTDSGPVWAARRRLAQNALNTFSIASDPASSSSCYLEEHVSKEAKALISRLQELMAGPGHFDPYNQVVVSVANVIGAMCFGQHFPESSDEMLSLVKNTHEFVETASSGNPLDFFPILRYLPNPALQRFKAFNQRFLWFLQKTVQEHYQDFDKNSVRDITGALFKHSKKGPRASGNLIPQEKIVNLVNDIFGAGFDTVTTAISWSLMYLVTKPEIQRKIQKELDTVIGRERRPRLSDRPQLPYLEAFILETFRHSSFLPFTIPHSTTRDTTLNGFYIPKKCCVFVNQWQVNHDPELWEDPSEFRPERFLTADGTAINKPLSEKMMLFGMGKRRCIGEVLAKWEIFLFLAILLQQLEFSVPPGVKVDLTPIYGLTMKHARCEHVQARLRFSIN

CYP2B6 = molecular target: T4, CYP2B6 (Homo sapiens, UniProt P20813); parameters: method as in PMID 23446989; settings: inhibitory effect towards CYP2B6; cited from earlier work
T4 sequence (P20813 1-491): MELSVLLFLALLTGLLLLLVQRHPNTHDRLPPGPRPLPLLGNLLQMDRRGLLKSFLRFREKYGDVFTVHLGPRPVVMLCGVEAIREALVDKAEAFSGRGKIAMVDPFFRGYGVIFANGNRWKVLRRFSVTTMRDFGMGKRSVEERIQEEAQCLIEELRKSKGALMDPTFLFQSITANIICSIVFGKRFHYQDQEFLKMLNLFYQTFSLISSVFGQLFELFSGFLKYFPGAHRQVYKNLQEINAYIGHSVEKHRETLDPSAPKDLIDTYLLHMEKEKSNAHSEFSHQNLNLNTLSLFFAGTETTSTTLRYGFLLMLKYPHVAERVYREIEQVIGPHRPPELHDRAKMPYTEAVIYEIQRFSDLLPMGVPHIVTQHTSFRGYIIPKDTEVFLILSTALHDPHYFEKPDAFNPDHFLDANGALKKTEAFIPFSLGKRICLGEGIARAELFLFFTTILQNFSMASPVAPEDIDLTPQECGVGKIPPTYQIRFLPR

CYP2C9 = CYP2C9 (Homo sapiens, UniProt P11712); settings: inhibitory effect towards CYP2C9; cited from earlier work
Chain of CYP2C9 (P11712 whole entry): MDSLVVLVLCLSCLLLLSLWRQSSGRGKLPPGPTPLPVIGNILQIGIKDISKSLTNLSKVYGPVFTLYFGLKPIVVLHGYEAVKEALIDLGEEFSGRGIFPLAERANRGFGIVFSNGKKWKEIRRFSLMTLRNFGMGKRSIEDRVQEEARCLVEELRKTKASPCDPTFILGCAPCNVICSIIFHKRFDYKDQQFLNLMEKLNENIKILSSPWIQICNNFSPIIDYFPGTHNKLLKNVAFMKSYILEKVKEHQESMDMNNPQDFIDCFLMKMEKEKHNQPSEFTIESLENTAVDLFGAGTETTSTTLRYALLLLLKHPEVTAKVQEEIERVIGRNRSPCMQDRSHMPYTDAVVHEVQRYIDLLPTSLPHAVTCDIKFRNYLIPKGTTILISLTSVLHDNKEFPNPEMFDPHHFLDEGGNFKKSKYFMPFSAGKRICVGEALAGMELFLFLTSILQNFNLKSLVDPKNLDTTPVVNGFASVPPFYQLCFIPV

CYP2C19 = CYP2C19 (Homo sapiens, UniProt P33261); parameters: method as in PMID 23446989; settings: inhibitory effect towards CYP2C19; cited from earlier work
Chain of CYP2C19 (P33261 whole entry): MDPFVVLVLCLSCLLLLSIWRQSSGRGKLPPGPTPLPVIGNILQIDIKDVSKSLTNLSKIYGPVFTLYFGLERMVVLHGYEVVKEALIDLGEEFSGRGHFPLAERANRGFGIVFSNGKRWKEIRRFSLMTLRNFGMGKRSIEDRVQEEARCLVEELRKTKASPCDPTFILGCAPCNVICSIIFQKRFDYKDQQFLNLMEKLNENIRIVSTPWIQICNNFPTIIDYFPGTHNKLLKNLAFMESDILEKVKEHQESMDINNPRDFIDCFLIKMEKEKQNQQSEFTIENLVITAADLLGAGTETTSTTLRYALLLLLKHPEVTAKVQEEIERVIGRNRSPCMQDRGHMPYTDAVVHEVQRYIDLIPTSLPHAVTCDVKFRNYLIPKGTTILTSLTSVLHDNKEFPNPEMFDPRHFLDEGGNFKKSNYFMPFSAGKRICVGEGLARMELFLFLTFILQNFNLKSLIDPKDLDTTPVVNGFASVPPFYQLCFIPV

In the case of Cc1ccc(C)c(OCCCC(C)(C)C(=O)O[C@@H]2O[C@H](C(=O)O)[C@@H](O)[C@H](O)[C@H]2O)c1 [gemfibrozil glucuronide], the Ki (CYP2C8; selective CYP2C8 inhibitor) is given as 20 to 52 µM.

For O=C(O)c1cccnc1Nc1cccc(C(F)(F)F)c1 [niflumic acid], the Ki (UGT1A9) is given as 0.1 to 0.4 µM.

For C=CCc1ccc(Oc2cc(CC=C)cc(O)c2O)cc1 [obovatol], the IC50 (CYP1A2) is listed as 4.4 µM, the IC50 (CYP2B6) is listed as 13.9 µM and the IC50 (CYP2C8; inhibitory effect towards CYP2C8) is listed as 11.1 µM. The IC50 (CYP2C9) was 3.3 µM and the IC50 (CYP2C19) was 0.8 µM.
